Reference: patent publication US8530489B2 (Vertex Pharmaceuticals Incorporated, priority 2006, dated 2013)

biological target: PLK1 (Homo sapiens, UniProt P53350); assay: PLK1 Inhibition Assay I (radioactive-phosphate incorporation); assay type: biochemical; details: Ki(app); PLK1 Inhibition Assay I or II (table does not say which)
Protocol: The compounds of the present invention are evaluated as inhibitors of human PLK kinase using the following assays.
Compounds were screened for their ability to inhibit PLK1 using a radioactive-phosphate incorporation assay. Assays were carried out in a mixture of 25 mM HEPES (pH 7.5), 10 mM MgCl2, and 1 mM DTT. Final substrate concentrations were 350 μM [γ-33P]ATP (136 mCi 33P ATP/mmol ATP, Amersham Pharmacia Biotech/Sigma Chemicals) and 450 μM peptide (KKKISDELMDATFADQEAK) [SEQ. ID:1]. Assays were carried out at 25° C. in the presence of 2 nM PLK1. An assay stock buffer solution was prepared containing all of the reagents listed above, with the exception of ATP and the test compound of interest. 30 μL of the stock solution was placed in a 96 well plate followed by addition of 2 μL of DMSO stock containing serial dilutions of the test compound (typically starting from a final concentration of 10 μM with 2-fold serial dilutions) in duplicate (final DMSO concentration 5%). The plate was pre-incubated for 10 minutes at 25° C. and the reaction initiated by addition of 8 μL [γ-33P]ATP (final concentration 350 μM).
The reaction was stopped after 240 minutes by the addition of 100 μL 0.14M phosphoric acid. A multiscreen phosphocellulose filter 96-well plate (Millipore, Cat No. MAPHN0B50) was pretreated with 100 μL 0.1 M phosphoric acid prior to the addition of 125 μL of the stopped assay mixture. The plate was washed with 4×200 μL 0.1 M phosphoric acid. After drying, 100 μL Optiphase ‘SuperMix’ liquid scintillation cocktail (Perkin Elmer) was added to the well prior to scintillation counting (1450 Microbeta Liquid Scintillation Counter, Wallac).
After removing mean background values for all of the data points, Ki(app) data were calculated from non-linear regression analysis of the initial rate data using the Prism software package (GraphPad Prism version 3.0cx for Macintosh, GraphPad Software, San Diego Calif., USA).

PLK1, sequence (P53350 whole entry): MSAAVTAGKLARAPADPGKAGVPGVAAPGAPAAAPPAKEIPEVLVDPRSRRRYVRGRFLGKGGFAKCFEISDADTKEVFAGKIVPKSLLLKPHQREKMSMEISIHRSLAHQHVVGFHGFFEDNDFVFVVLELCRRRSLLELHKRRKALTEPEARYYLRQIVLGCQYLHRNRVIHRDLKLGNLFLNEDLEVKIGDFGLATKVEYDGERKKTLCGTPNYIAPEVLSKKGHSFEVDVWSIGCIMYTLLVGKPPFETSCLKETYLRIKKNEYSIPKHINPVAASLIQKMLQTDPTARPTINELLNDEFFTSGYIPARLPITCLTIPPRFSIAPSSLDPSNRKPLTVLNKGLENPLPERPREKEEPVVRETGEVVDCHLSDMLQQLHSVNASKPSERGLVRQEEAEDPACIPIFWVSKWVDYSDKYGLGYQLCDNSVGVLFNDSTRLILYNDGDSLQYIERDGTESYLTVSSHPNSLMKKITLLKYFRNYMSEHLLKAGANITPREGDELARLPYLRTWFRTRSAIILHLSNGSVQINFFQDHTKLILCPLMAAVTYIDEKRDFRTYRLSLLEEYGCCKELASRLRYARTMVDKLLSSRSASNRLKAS

Row | Ki | SMILES
1 | > 40 nM | CC(C)(Nc1ncc(C#N)c(-c2c[nH]c3ncc(C(F)(F)F)cc23)n1)C(=O)NCCC(F)(F)F [IA-1, 2-(5-cyano-4-(5-(trifluoromethyl)-1H-pyrrolo[2,3-b]pyridin-3-yl)pyrimidin-2-ylamino)-2-methyl-N-(3,3,3-trifluoropropyl)propanamide]
2 | < 3 nM | C[C@@H](Nc1ncc(C#N)c(-c2c[nH]c3ncc(C(F)(F)F)cc23)n1)C1CCN(C(=O)[C@@H](N)CC#N)CC1 [Compound I-255, 2-((R)-1-(1-((S)-2-amino-3-cyanopropanoyl)piperidin-4-yl)ethylamino)-4-(5-(trifluoromethyl)-1H-pyrrolo[2,3-b]pyridin-3-yl)pyrimidine-5-carbonitrile]
3 | 3 to 40 nM | C[C@@H](Nc1ncc(C#N)c(-c2c[nH]c3ncc(C(F)(F)F)cc23)n1)c1ccc(N[C@H]2CCN(C)C2)nc1 [Compound I-280, 2-(1-(6-((S)-1-methylpyrrolidin-3-ylamino)pyridin-3-yl)ethylamino)-4-(5-(trifluoromethyl)-1H-pyrrolo[2,3-b]pyridin-3-yl)pyrimidine-5-carbonitrile]
4 | < 3 nM | C[C@@H](Nc1ncc(C#N)c(-c2c[nH]c3ncc(C(F)(F)F)cc23)n1)c1ccc(N(C)CCN(C)C)nc1 [Compound I-282, 2-((R)-1-(6-((2-(dimethylamino)ethyl)(methyl)amino)pyridin-3-yl)ethylamino)-4-(5-(trifluoromethyl)-1H-pyrrolo[2,3-b]pyridin-3-yl)pyrimidine-5-carbonitrile]
5 | > 40 nM | N#Cc1cnc(Sc2ccccc2Br)nc1-c1c[nH]c2ncc(C(F)(F)F)cc12 [II-7, 2-(2-bromophenylthio)-4-(5-(trifluoromethyl)-1H-pyrrolo[2,3-b]pyridin-3-yl)pyrimidine-5-carbonitrile]
6 | < 3 nM | C[C@@H](Nc1ncc(C#N)c(-c2c[nH]c3ncc(C(F)(F)F)cc23)n1)c1cnc(N2CCN(C)CC2)nc1 [Compound I-299, 2-((R)-1-(2-(4-methylpiperazin-1-yl)pyrimidin-5-yl)ethylamino)-4-(5-(trifluoromethyl)-1H-pyrrolo[2,3-b]pyridin-3-yl)pyrimidine-5-carbonitrile]
7 | > 40 nM | C[C@@H](Nc1ncc(C#N)c(-c2c[nH]c3ncc(C(F)(F)F)cc23)n1)[C@H]1CC[C@@H](N2CCN(C)CC2)CC1 [Compound I-245, 2-((R)-1-((1s,4S)-4-(4-methylpiperazin-1-yl)cyclohexyl)ethylamino)-4-(5-(trifluoromethyl)-1H-pyrrolo[2,3-b]pyridin-3-yl)pyrimidine-5-carbonitrile]
8 | > 40 nM | COc1ccccc1Sc1ncc(C#N)c(-c2c[nH]c3ncc(C(F)(F)F)cc23)n1 [II-14, 2-(2-methoxyphenylthio)-4-(5-(trifluoromethyl)-1H-pyrrolo[2,3-b]pyridin-3-yl)pyrimidine-5-carbonitrile]
9 | < 3 nM | CC(=O)C(=O)N1CCC([C@@H](C)Nc2ncc(C#N)c(-c3c[nH]c4ncc(C(F)(F)F)cc34)n2)CC1 [Compound I-231, 2-((R)-1-(1-(2-oxopropanoyl)piperidin-4-yl)ethylamino)-4-(5-(trifluoromethyl)-1H-pyrrolo[2,3-b]pyridin-3-yl)pyrimidine-5-carbonitrile]

Continued, compound first:

Row | SMILES | Ki
10 | CCC(Nc1ncc(C#N)c(-c2c[nH]c3ncc(C(F)(F)F)cc23)n1)C1CCN(S(=O)(=O)C(C)C)CC1 (centres unmarked) [Compound I-182, 2-(1-(1-(isopropylsulfonyl)piperidin-4-yl)propylamino)-4-(5-(trifluoromethyl)-1H-pyrrolo[2,3-b]pyridin-3-yl)pyrimidine-5-carbonitrile] | 3 to 40 nM
11 | N#Cc1cnc(NC(CO)c2cccnc2)nc1-c1c[nH]c2ncc(C(F)(F)F)cc12 (centres unmarked) [Compound I-113, 2-(2-hydroxy-1-(pyridin-3-yl)ethylamino)-4-(5-(trifluoromethyl)-1H-pyrrolo[2,3-b]pyridin-3-yl)pyrimidine-5-carbonitrile] | > 40 nM
12 | CCC(Nc1ncc(C#N)c(-c2c[nH]c3ncc(C(F)(F)F)cc23)n1)C1CCN(C(C)=O)CC1 (centres unmarked) [Compound I-174, 2-(1-(1-acetylpiperidin-4-yl)propylamino)-4-(5-(trifluoromethyl)-1H-pyrrolo[2,3-b]pyridin-3-yl)pyrimidine-5-carbonitrile] | < 3 nM
13 | N#Cc1cnc(NCc2ccncc2)nc1-c1c[nH]c2ncc(C(F)(F)F)cc12 [Compound I-23, 2-(pyridin-4-ylmethylamino)-4-(5-(trifluoromethyl)-1H-pyrrolo[2,3-b]pyridin-3-yl)pyrimidine-5-carbonitrile] | > 40 nM
14 | C[C@H](CN1CCOCC1)Nc1ncc(C#N)c(-c2c[nH]c3ncc(C(F)(F)F)cc23)n1 [Compound I-132, 2-((R)-1-morpholinopropan-2-ylamino)-4-(5-(trifluoromethyl)-1H-pyrrolo[2,3-b]pyridin-3-yl)pyrimidine-5-carbonitrile] | 3 to 40 nM
15 | CCN(CC)S(=O)(=O)c1ccc(C(C)Nc2ncc(C#N)c(-c3c[nH]c4ncc(C(F)(F)F)cc34)n2)cc1 (centres unmarked) [Compound I-181, 4-(1-(5-cyano-4-(5-(trifluoromethyl)-1H-pyrrolo[2,3-b]pyridin-3-yl)pyrimidin-2-ylamino)ethyl)-N,N-diethylbenzenesulfonamide] | 3 to 40 nM
16 | CC(Nc1ncc(C#N)c(-c2c[nH]c3ncc(C(F)(F)F)cc23)n1)c1ccc(N2CCC(F)CC2)nc1 (centres unmarked) [Compound I-199, 2-(1-(6-(4-fluoropiperidin-1-yl)pyridin-3-yl)ethylamino)-4-(5-(trifluoromethyl)-1H-pyrrolo[2,3-b]pyridin-3-yl)pyrimidine-5-carbonitrile] | 3 to 40 nM
17 | N#Cc1cnc(NCc2cccc(F)c2)nc1-c1c[nH]c2ncc(C(F)(F)F)cc12 [Compound I-18, 2-(3-fluorobenzylamino)-4-(5-(trifluoromethyl)-1H-pyrrolo[2,3-b]pyridin-3-yl)pyrimidine-5-carbonitrile] | 3 to 40 nM
18 | CC(Nc1ncc(C#N)c(-c2c[nH]c3ncc(C(F)(F)F)cc23)n1)C1CCN(C(=O)N(C)C)CC1 (centres unmarked) [Compound I-157, 4-(1-(5-cyano-4-(5-(trifluoromethyl)-1H-pyrrolo[2,3-b]pyridin-3-yl)pyrimidin-2-ylamino)ethyl)-N,N-dimethylpiperidine-1-carboxamide] | < 3 nM
19 | C[C@@H](Nc1ncc(C#N)c(-c2c[nH]c3ncc(C(F)(F)F)cc23)n1)c1ccc(S(=O)(=O)N(C)C)cc1 [Compound I-190, 4-((1R)-1-(5-cyano-4-(5-(trifluoromethyl)-1H-pyrrolo[2,3-b]pyridin-3-yl)pyrimidin-2-ylamino)ethyl)-N,N-dimethylbenzenesulfonamide] | < 3 nM
20 | CC(=O)N1CCC([C@H](C)Nc2ncc(C#N)c(-c3c[nH]c4ncc(C(F)(F)F)cc34)n2)CC1 [Compound I-135, 2-((S)-1-(1-acetylpiperidin-4-yl)ethylamino)-4-(5-(trifluoromethyl)-1H-pyrrolo[2,3-b]pyridin-3-yl)pyrimidine-5-carbonitrile] | 3 to 40 nM
21 | N#Cc1cnc(N2CCC[C@@H]2CN)nc1-c1c[nH]c2ncc(C(F)(F)F)cc12 [Compound I-87, 2-((R)-2-(aminomethyl)pyrrolidin-1-yl)-4-(5-(trifluoromethyl)-1H-pyrrolo[2,3-b]pyridin-3-yl)pyrimidine-5-carbonitrile] | > 40 nM
22 | COc1ccc(CNc2ncc(C#N)c(-c3c[nH]c4ncc(C(F)(F)F)cc34)n2)cc1 [Compound I-12, 2-(4-methoxybenzylamino)-4-(5-(trifluoromethyl)-1H-pyrrolo[2,3-b]pyridin-3-yl)pyrimidine-5-carbonitrile] | > 40 nM
23 | CNCC(=O)N1CCC(C(C)Nc2ncc(C#N)c(-c3c[nH]c4ncc(C(F)(F)F)cc34)n2)CC1 (centres unmarked) [Compound I-189, 2-(1-(1-(2-(methylamino)acetyl)piperidin-4-yl)ethylamino)-4-(5-(trifluoromethyl)-1H-pyrrolo[2,3-b]pyridin-3-yl)pyrimidine-5-carbonitrile] | < 3 nM
24 | N#Cc1cnc(NCc2nc3ccccc3[nH]2)nc1-c1c[nH]c2ncc(C(F)(F)F)cc12 [Compound I-30, 2-((1H-benzo[d]imidazol-2-yl)methylamino)-4-(5-(trifluoromethyl)-1H-pyrrolo[2,3-b]pyridin-3-yl)pyrimidine-5-carbonitrile] | > 40 nM
25 | CC(Nc1ncc(C#N)c(-c2c[nH]c3ncc(C(F)(F)F)cc23)n1)C1CCN(S(C)(=O)=O)CC1 (centres unmarked) [Compound I-150, 2-(1-(1-(methylsulfonyl)piperidin-4-yl)ethylamino)-4-(5-(trifluoromethyl)-1H-pyrrolo[2,3-b]pyridin-3-yl)pyrimidine-5-carbonitrile] | < 3 nM
26 | CC(Nc1ncc(C#N)c(-c2c[nH]c3ncc(C(F)(F)F)cc23)n1)c1ccc(S(C)(=O)=O)cc1 (centres unmarked) [Compound I-155, 2-(1-(4-(methylsulfonyl)phenyl)ethylamino)-4-(5-(trifluoromethyl)-1H-pyrrolo[2,3-b]pyridin-3-yl)pyrimidine-5-carbonitrile] | < 3 nM
